Measured values reported in ChEMBL document CHEMBL5505979, “Novel aminothiazoximone-corbelled ethoxycarbonylpyrimidones with antibiofilm activity to conquer Gram-negative bacteria through potential multitargeting effects” (Eur J Med Chem, 2024).
≈ marks a conversion by molar mass, not a printed value. Calls of active or inactive are those of the source. The rule behind the calls is not given here.

Experiments:
Escherichia coli [1] = test: Anti-bacterial activity against Escherichia coli ATCC 25922 assessed as inhibition of bacterial growth measured upto 9 hrs; assay type: functional, organism-based
Acinetobacter baumannii [2] = test: Anti-bacterial activity against Acinetobacter baumannii assessed as growth inhibition by measuring optical density measured at 1 time of MIC in presence of 1/4 times of MIC of norfloxacin by Checkerboard assay (reference value: 0.157); assay type: functional
Pseudomonas aeruginosa = test: Anti-bacterial activity against Pseudomonas aeruginosa ATCC 9027 assessed as inhibition of bacterial growth; assay type: functional
Acinetobacter baumannii [3] = test: Anti-bacterial activity against Acinetobacter baumannii assessed as fractional inhibitory concentration measured upto 9 hrs in presence of norfloxacin; assay type: functional
Escherichia coli [4] = test: Antibiofilm activity against Escherichia coli ATCC 25922 assessed as clearance rate of mature biofilm at MIC concentration relative to control; assay type: functional
Acinetobacter baumannii [5] = test: Antibiofilm activity against Acinetobacter baumannii assessed as clearance rate of mature biofilm at 8 times of MIC concentration relative to control; assay type: functional
Escherichia coli [6] = test: Anti-bacterial activity against Escherichia coli ATCC 25922 assessed as growth inhibition by measuring optical density measured at 1/4 time of MIC in presence of 1/2 times of MIC of norfloxacin by Checkerboard assay (reference value: 0.128); assay type: functional
Acinetobacter baumannii [7] = test: Anti-bacterial activity against Acinetobacter baumannii assessed as growth inhibition by measuring optical density measured at 4 time of MIC in presence of 1 times of MIC of norfloxacin by Checkerboard assay (reference value: 0.152); assay type: functional
Escherichia coli [8] = test: Bactericidal activity against Escherichia coli ATCC 25922 assessed as bacterial killing at 1 to 8 times of MIC concentration measured upto 8 hrs by time-kill kinetics assay; assay type: functional, organism-based
Escherichia coli [9] = test: Anti-bacterial activity against Escherichia coli ATCC 25922 assessed as growth inhibition by measuring optical density measured at 2 time of MIC in presence of 1 times of MIC of norfloxacin by Checkerboard assay (reference value: 0.128); assay type: functional
Acinetobacter baumannii [10] = test: Anti-bacterial activity against Acinetobacter baumannii assessed as growth inhibition by measuring optical density measured at 2 time of MIC in presence of 1/2 times of MIC of norfloxacin by Checkerboard assay (reference value: 0.155); assay type: functional
Staphylococcus aureus [11] = test: Anti-bacterial activity against methicillin-resistant Staphylococcus aureus ATCC 43300 assessed as inhibition of bacterial growth; assay type: functional; settings: Staphylococcus aureus, ATCC 43300; read-out: MIC
Escherichia coli [12] = test: Anti-bacterial activity against Escherichia coli ATCC 25922 assessed as growth inhibition by measuring optical density measured at 1/2 time of MIC in presence of 1/4 times of MIC of norfloxacin by Checkerboard assay (reference value: 0.124); assay type: functional
Escherichia coli [13] = test: Anti-bacterial activity against Escherichia coli ATCC 25922 assessed as growth inhibition by measuring optical density measured at 1/4 time of MIC in presence of 1/8 times of MIC of norfloxacin by Checkerboard assay (reference value: 0.128); assay type: functional
Escherichia coli [14] = test: Anti-bacterial activity against Escherichia coli ATCC 25922 assessed as growth inhibition by measuring optical density measured at 1/4 time of MIC in presence of 1 times of MIC of norfloxacin by Checkerboard assay (reference value: 0.128); assay type: functional
Acinetobacter baumannii [15] = test: Reduction of biofilm virulent factors in Acinetobacter baumannii assessed as decrease in extracellular polymeric substances (EPS) by measuring optical density at 490 nm at 2 times of MIC concentration by congo red binding assay (reference value: 0.188 to 0.192); assay type: functional
Acinetobacter baumannii [16] = test: Anti-bacterial activity against Acinetobacter baumannii assessed as growth inhibition by measuring optical density measured at 4 time of MIC in presence of 1/2 times of MIC of norfloxacin by Checkerboard assay (reference value: 0.152); assay type: functional
Escherichia coli [17] = test: Reduction in metabolic activity of Escherichia coli ATCC 25922 assessed as biomass of the fluorescent pink change to non-fluorescent blue; assay type: functional, organism-based
Acinetobacter baumannii [18] = test: Anti-bacterial activity against Acinetobacter baumannii assessed as growth inhibition by measuring optical density measured at 1/4 time of MIC in presence of 1/4 times of MIC of norfloxacin by Checkerboard assay (reference value: 0.152); assay type: functional
Acinetobacter baumannii [19] = test: Induction of membrane depolarization Acinetobacter baumannii assessed as increase in red fluorescence intensity at 0.5 to 8 times of MIC concentration measured after 6 hrs by […] assay; assay type: functional, organism-based
Staphylococcus aureus [20] = test: Anti-bacterial activity against Staphylococcus aureus CMCC (B) 26003 assessed as inhibition of bacterial growth; assay type: functional
Staphylococcus aureus [21] = test: Anti-bacterial activity against Staphylococcus aureus ATCC 12600 assessed as inhibition of bacterial growth; assay type: functional; settings: Staphylococcus aureus, ATCC 12600; read-out: MIC
Escherichia coli [22] = test: Anti-bacterial activity against Escherichia coli ATCC 25922 assessed as growth inhibition by measuring optical density measured at 4 time of MIC in presence of 1/4 times of MIC of norfloxacin by Checkerboard assay (reference value: 0.125); assay type: functional
Cell membrane = test: Induction of physical destruction of cell membrane in Escherichia coli ATCC 25922 assessed as leakage of protein at 1/4 to 8 times of MIC concentration by Coomassie blue quantitative assay; assay type: cell membranes
Escherichia coli [23] = test: Anti-bacterial activity against Escherichia coli ATCC 25922 assessed as growth inhibition by measuring optical density measured at 1/4 time of MIC in presence of 2 times of MIC of norfloxacin by Checkerboard assay (reference value: 0.128); assay type: functional
Acinetobacter baumannii [24] = test: Anti-bacterial activity against Acinetobacter baumannii assessed as growth inhibition by measuring optical density measured at 2 time of MIC in presence of 1/8 times of MIC of norfloxacin by Checkerboard assay (reference value: 0.155); assay type: functional
Escherichia coli [25] = test: Anti-bacterial activity against Escherichia coli ATCC 25922 assessed as growth inhibition by measuring optical density measured at 1 time of MIC in presence of 2 times of MIC of norfloxacin by Checkerboard assay (reference value: 0.125); assay type: functional
Acinetobacter baumannii [26] = test: Induction of intracellular ROS accumulation in Acinetobacter baumannii assessed as fluorescence intensity at 1/4 to 2 times of MIC by DCFH-DA staining based assay; assay type: functional, organism-based
Acinetobacter baumannii [27] = test: Anti-bacterial activity against Acinetobacter baumannii R674 assessed as inhibition of bacterial growth; assay type: functional
Acinetobacter baumannii [28] = test: Anti-bacterial activity against Acinetobacter baumannii assessed as growth inhibition by measuring optical density measured at 1/4 time of MIC in presence of 1 times of MIC of norfloxacin by Checkerboard assay (reference value: 0.152); assay type: functional
Acinetobacter baumannii [29] = test: Anti-bacterial activity against Acinetobacter baumannii assessed as growth inhibition by measuring optical density measured at 2 time of MIC in presence of 2 times of MIC of norfloxacin by Checkerboard assay (reference value: 0.155); assay type: functional
Acinetobacter baumannii [30] = test: Anti-bacterial activity against Acinetobacter baumannii assessed as growth inhibition by measuring optical density measured at 2 time of MIC in presence of 1/4 times of MIC of norfloxacin by Checkerboard assay (reference value: 0.155); assay type: functional
BEAS-2B = test: Cytotoxicity against human BEAS-2B cells assessed as cell viability at 0.064 mmol/L measured after 24 hrs; assay type: toxicity, cell-based; settings: 64 µM
Staphylococcus aureus [31] = test: Anti-bacterial activity against Staphylococcus aureus ATCC 6538 assessed as inhibition of bacterial growth; assay type: functional

CCCCc1nc(Cl)c(C2NC(=O)NC(CN3CCN(C(=O)/C(=N/OC)c4csc(N)n4)CC3)=C2C(=O)OCC)[nH]1 (centres undefined)
Activity (Escherichia coli [1]): Dose-Dependent Effect
OD (Acinetobacter baumannii [2]): 0.109
MIC (Pseudomonas aeruginosa): 26 µM (≈ 15.8 µg/mL)
FIC (Acinetobacter baumannii [3]): 0.5
Activity (Escherichia coli [4]): 37.7%
Activity (Acinetobacter baumannii [5]): 42.6%
OD (Escherichia coli [6]): 0.125
OD (Acinetobacter baumannii [7]): 0.051
Activity (Escherichia coli [8]): Active
OD (Escherichia coli [9]): 0.052
OD (Acinetobacter baumannii [10]): 0.05
MIC (Staphylococcus aureus [11]): 13 µM (≈ 7.91 µg/mL)
OD (Escherichia coli [12]): 0.118
OD (Escherichia coli [13]): 0.122
OD (Escherichia coli [14]): 0.112
OD (Acinetobacter baumannii [15]): 0.13
OD (Acinetobacter baumannii [16]): 0.05
Activity (Escherichia coli [17]): Active
OD (Acinetobacter baumannii [18]): 0.129
Activity (Acinetobacter baumannii [19]): Active
MIC (Staphylococcus aureus [20]): 26 µM (≈ 15.8 µg/mL)
MIC (Staphylococcus aureus [21]): 7 µM (≈ 4.26 µg/mL)
OD (Escherichia coli [22]): 0.051
Activity (Cell membrane): Active
OD (Escherichia coli [23]): 0.078
OD (Acinetobacter baumannii [24]): 0.128
OD (Escherichia coli [25]): 0.051
Activity (Acinetobacter baumannii [26]): Active
MIC (Acinetobacter baumannii [27]): 7 µM (≈ 4.26 µg/mL)
OD (Acinetobacter baumannii [28]): 0.112
OD (Acinetobacter baumannii [29]): 0.051
OD (Acinetobacter baumannii [30]): 0.107
Activity (BEAS-2B): Non-Toxic
MIC (Staphylococcus aureus [31]): 7 µM (≈ 4.26 µg/mL)
